Data from patent US20190375787A1, “PEPTIDOMIMETICS AND THEIR USE IN THERAPY” (INSTYTUT […]. Z O.O., priority 2016, published 2019).
Square brackets hold non-standard residues; d marks the D form. Peptide text beside a SMILES is read from it. * marks the point of attachment. X1 = C(=Cc1ccccc1)CN1CCN(*)CC1

Key:
Assay type in all cases: cell-based
[1] = system: Colo205 (intestinal cancer) cells; assay: Inhibition of cell migration (transwell insert), Colo205; conditions: Colo205, IC50 concentration, concentrations below 400 μM
Procedure: (§1) Inhibition of cell migration was evaluated using 24-well plates with PET (polyethylene terephthalate) membrane transwell insert. The experiment was performed using IC50 concentrations of the tested compounds, and migration of the cells, that means, the number of the cells passing through the membrane to the bottom side of the membrane, was observed. The cells which passed the membrane, were stained with crystal violet and counted.

[2] = system: SW620 (intestinal cancer); assay: Cell growth, colorimetric MTT or XTT, SW620
Procedure: (§2) Influence of the compounds on the cell growth was evaluated by colorimetric method, using MTT or XTT reagent, values of IC50 were determined. The tests were based on reduction of the salt by mitochondrial dehydrogenase from metabolically active cells. The colored product of the reaction was determined colorimetrically, and in result the number of living cells was assigned.

[3] = system: SW480 (intestinal cancer) cells; assay: Inhibition of cell migration (transwell insert), SW480; conditions: SW480, IC50 concentration
Procedure: as §1

[4] = system: HT29 (intestinal cancer) cells; assay: Inhibition of cell migration (transwell insert), HT29; conditions: HT29, IC50 concentration, concentrations below 400 μM
Procedure: as §1

[5] = system: SW620 (intestinal cancer) cells; assay: Inhibition of cell migration (transwell insert), SW620; conditions: SW620, IC50 concentration
Procedure: as §1

[6] = system: human pancreatic cancer cell line CFPAC-1; assay: MTS cell viability test on CFPAC-1 cells; conditions: 24 h incubation; for activity (cell viability) compared with gem and 5FU: CFPAC-1, concentrations 0.01-0.1 mM; for activity relative to the reference drugs (gem, 5FU): CFPAC-1, higher concentrations (above 0.1 mM)
Description: Phenylalanyl-trans-1-cinnamylpiperazine was acylated with t-Boc-Tyr-D-Ala using TBTU/DIPEA methodology. The reaction product was precipitated with 10% NaHCO3 and separated from the reaction mixture by filtration. The solid was washed three times with water, until neutral pH of the filtrate was reached. The t-butyloxycarbonyl group was removed using TFA:DCM (1:1). The crude product was purified by preparative HPLC in a gradient of water/methanol with addition of 0.1% trifluoroacetic acid. The counterion was changed to Cl^− using the Dowex ion-exchange resin. The purified product, tyrosyl-D-alanyl-phenylalanyl-cinnamylpiperazine hydrochloride (further called TyrDAlaPheCyn) was tested on human pancreatic cancer cell line CFPAC-1, in comparison to commercial drugs, gemcitabine (gem) and 5-fluorouracil (5FU). The cells were grown on IMDM medium supplemented with 10% (v/v h.i. FBS, 2 mM L-glutamine and 1% (v/v) penicillin-streptomycin, in 37° C., in humidified atmosphere, with 5% CO2. The cells were seeded in 96 wells plate (3×10^3 cells per well) and incubated for 24 h (37° C., 5% CO2) in the culture medium. Next, TyrDAlaPheCyn, gem and 5FU in 5% DMSO solutions were added, to give in wells concentrations 0 (5% DMSO); 0.01; 0.05; 0.1; 0.5; and 1 mM. The plates were incubated for 24 h (37° C., 5% CO2). Cell viability was determined using colorimetric test MTS (3-(4,5-dimethylthiazol-2-yl)-5-(3-carboxymethoxyphenyl)-2-(4-sulfophenyl)-2H-tetrazolium). To each well, 20 μl of the reagent was added, and the plates were incubated in the same conditions for 1 h. The absorbance intensity at 490 nm was read. […] However, at higher concentrations, activity of the tested compound was even 4 times higher than for the reference drugs.
Tryptophyl-trans-1-cinnamylpiperazine was acylated with t-Boc-Tyr-D-Ala using TBTU/DIPEA methodology. The reaction product was precipitated with 10% NaHCO3 and separated from the reaction mixture by filtration. The solid was washed three times with water, until neutral pH of the filtrate was reached. The t-butyloxycarbonyl group was removed using TFA:DCM (1:1). […] The cells were grown on DMDM medium supplemented with 10% (v/v h.i. FBS, 2 mM L-glutamine and 1% (v/v) penicillin-streptomycin, in 37° C., in humidified atmosphere, with 5% CO2. The cells were seeded in 96 wells plate (3×10^3 cells per well) and incubated for 24 h (37° C., 5% CO2) in the culture medium. Next, TyrDAlaTrpCyn, gem and 5FU in 5% DMSO solutions were added, to assure in wells concentrations 0 (5% DMSO); 0.01; 0.05; 0.1; 0.5; and 1 mM. The plates were incubated for 24 h (37° C., 5% CO2). Cell viability was determined using colorimetric test MTS (3-(4,5-dimethylthiazol-2-yl)-5-(3-carboxymethoxyphenyl)-2-(4-sulfophenyl)-2H-tetrazolium). […] The absorbance intensity at 490 nm was read. […]

HT29 (intestinal cancer) = assay: Cell growth, colorimetric MTT or XTT, HT29
Procedure: as §2

[7] = system: Colo205 (intestinal cancer); assay: Cell growth, colorimetric MTT or XTT, Colo205
Procedure: as §2

Row | Compound | inhibition of cell migration [1] [%] | IC50 [2] [µM] | inhibition of cell migration ([3]; concentrations below 400 μM) [%] | inhibition of cell migration [4] [%] | activity (cell viability) compared with gem and 5FU [6] | activity relative to the reference drugs (gem, 5FU) [6] [times] | also measured
1 | C[C@@H](NC(=O)[C@@H](N)Cc1ccc(O)cc1)C(=O)NCC(=O)N[C@@H](Cc1ccccc1)C(=O)N1CCN(CC=Cc2ccccc2)CC1.Cl [TyrDAlaGlyPheCyn, tyrosyl-D-alanyl-glicyl-phenylalanyl-1-cinnamylpiperazine hydrochloride] | ≤ 60 | < 450 | ≤ 60 | ≤ 70 | – | – | inhibition of cell migration ([5]; concentrations below 450 μM): ≤ 40%
2 | C[C@@H](NC(=O)[C@@H](N)Cc1ccc(O)cc1)C(=O)NCC(=O)N[C@@H](Cc1c[nH]c2ccccc12)C(=O)N1CCN(CC=Cc2ccccc2)CC1.Cl [TyrDAlaGlyTrpCyn, tyrosyl-D-alanyl-glicyl-tryptophyl-1-cinnamylpiperazine hydrochloride] (H-Y[dA]GW-X1) | ≤ 40 | < 500 | ≤ 30 | ≤ 50 | – | – | inhibition of cell migration ([5]; concentrations below 500 μM): ≤ 30%
3 | C[C@@H](NC(=O)[C@@H](N)Cc1ccc(O)cc1)C(=O)N[C@@H](Cc1ccccc1)C(=O)N1CCN(CC=Cc2ccccc2)CC1.Cl [TyrDAlaPheCyn, tyrosyl-D-alanyl-phenylalanyl-cinnamylpiperazine hydrochloride] | – | – | – | – | similar | 4 | –
4 | C[C@@H](NC(=O)[C@@H](N)Cc1ccc(O)cc1)C(=O)N[C@@H](Cc1c[nH]c2ccccc12)C(=O)N1CCN(CC=Cc2ccccc2)CC1.Cl [TyrDAlaTrpCyn, tyrosyl-D-alanyl-tryptophyl-cinnamylpiperazine hydrochloride] | – | – | – | – | similar | 4 | –
5 | C[C@H](O)[C@@H](NC(=O)[C@@H](N)Cc1ccc(O)cc1)C(=O)NCC(=O)N[C@@H](Cc1ccccc1)C(=O)N1CCN(CC=Cc2ccccc2)CC1.Cl [TyrDThrGlyPheCyn, tyrosyl-D-threonyl-glicyl-phenylalanyl-1-cinnamylpiperazine hydrochloride] (H-Y[dT]GF-X1) | – | < 650 | – | – | – | – | inhibition of cell migration ([3]; concentrations below 500 μM): ≤ 45%
6 | C[C@H](O)[C@@H](NC(=O)[C@@H](N)Cc1ccc(O)cc1)C(=O)NCC(=O)N[C@@H](Cc1c[nH]c2ccccc12)C(=O)N1CCN(CC=Cc2ccccc2)CC1.Cl [TyrDThrGlyTrpCyn, tyrosyl-D-threonyl-glicyl-tryptophyl-1-cinnamylpiperazine hydrochloride] (H-Y[dT]GW-X1) | – | < 600 | – | – | – | – | IC50 (HT29 (intestinal cancer)): < 600 µM; inhibition of cell migration ([3]; concentrations below 600 μM): ≤ 40%; IC50 [7]: < 650 µM; inhibition of cell migration ([5]; concentrations below 600 μM): ≤ 30%
